Test results taken from patent US11780893B2, “Kv1.3 blockers” (Zealand Pharma A/S, priority 2019, dated 2023).
Bridge positions count the residues as written; N and C are the ends. Square brackets hold non-standard residues; d marks the D form. Peptide text beside a SMILES is read from it. Nle = CCCC[C@H](N)C(=O)O

Assays:
in vivo = conditions: male, rat, sc, 70 nmol/kg
Kv1.6 = molecular target: T1, Kv1.6 (Homo sapiens, UniProt P17658); experiment: cell-based; conditions: for IC50: CHO cells, whole-cell patch clamp, read-out: Potency IC50 (nM) Kv1.6; for Selectivity Kv1.6/Kv1.3: ratio IC50[Kv1.6]/IC50[Kv1.3]
T1 construct: expressed in transfected cells; host or cells: Chinese Hamster Ovary (CHO)

Kv1.3 = molecular target: T2, Kv1.3 (Homo sapiens, UniProt P22001); experiment: cell-based; conditions: CHO cells, whole-cell patch clamp; read-out: Potency IC50 (nM) Kv1.3
T2 construct: expressed in transfected cells; host or cells: Chinese Hamster Ovary (CHO)

[1] = molecular target: T3, human Kv1.3 voltage-gated K+ channel (Homo sapiens, UniProt P22001); experiment: cell-based; conditions: inhibition of thallium flux, CHO-DUKX cells with human Kv1.3; read-out: IC50
T3 construct: host or cells: CHO-DUKX

Kv1.1 = molecular target: T4, Kv1.1 (Homo sapiens, UniProt Q09470); experiment: cell-based; conditions: for IC50: CHO cells, whole-cell patch clamp, read-out: Potency IC50 (nM) Kv1.1; for Selectivity Kv1.1/Kv1.3: ratio IC50[Kv1.1]/IC50[Kv1.3]
T4 construct: expressed in transfected cells; host or cells: Chinese Hamster Ovary (CHO)

Kv1.2 = molecular target: T5, Kv1.2 (Homo sapiens, UniProt P16389); experiment: cell-based; conditions: CHO cells, whole-cell patch clamp; read-out: Potency IC50 (nM) Kv1.2
T5 construct: expressed in transfected cells; host or cells: Chinese Hamster Ovary (CHO)

Rat whole blood = Rat whole blood (Rattus norvegicus, UniProt P15384)
Rat whole blood, sequence (P15384 whole entry): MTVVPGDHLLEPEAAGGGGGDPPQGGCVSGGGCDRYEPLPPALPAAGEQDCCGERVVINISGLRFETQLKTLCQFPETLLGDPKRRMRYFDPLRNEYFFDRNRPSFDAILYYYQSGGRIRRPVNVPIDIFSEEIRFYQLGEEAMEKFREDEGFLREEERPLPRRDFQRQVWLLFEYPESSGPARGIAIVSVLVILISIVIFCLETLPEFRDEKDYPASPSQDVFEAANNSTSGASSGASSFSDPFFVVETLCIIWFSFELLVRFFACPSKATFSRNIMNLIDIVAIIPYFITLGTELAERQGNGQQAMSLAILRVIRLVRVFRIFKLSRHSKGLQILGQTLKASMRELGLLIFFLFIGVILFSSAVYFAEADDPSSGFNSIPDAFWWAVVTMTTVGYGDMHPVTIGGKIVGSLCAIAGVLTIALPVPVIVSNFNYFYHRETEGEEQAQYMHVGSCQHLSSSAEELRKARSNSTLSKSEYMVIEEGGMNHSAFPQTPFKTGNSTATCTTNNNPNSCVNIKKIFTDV

T5 sequence (P16389 whole entry): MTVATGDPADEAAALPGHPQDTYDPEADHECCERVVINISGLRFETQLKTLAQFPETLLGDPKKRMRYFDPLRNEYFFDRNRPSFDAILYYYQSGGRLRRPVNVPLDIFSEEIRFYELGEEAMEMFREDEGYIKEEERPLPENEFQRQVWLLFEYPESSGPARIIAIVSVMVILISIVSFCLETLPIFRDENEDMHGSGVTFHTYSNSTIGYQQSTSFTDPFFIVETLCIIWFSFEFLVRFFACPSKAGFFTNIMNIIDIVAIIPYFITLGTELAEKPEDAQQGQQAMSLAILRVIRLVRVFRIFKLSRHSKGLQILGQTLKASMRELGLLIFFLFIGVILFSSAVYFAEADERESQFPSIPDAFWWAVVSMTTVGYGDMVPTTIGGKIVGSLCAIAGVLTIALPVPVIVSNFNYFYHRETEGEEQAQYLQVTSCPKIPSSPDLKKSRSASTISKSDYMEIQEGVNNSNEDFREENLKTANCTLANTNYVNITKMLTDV
T4 sequence (Q09470 whole entry): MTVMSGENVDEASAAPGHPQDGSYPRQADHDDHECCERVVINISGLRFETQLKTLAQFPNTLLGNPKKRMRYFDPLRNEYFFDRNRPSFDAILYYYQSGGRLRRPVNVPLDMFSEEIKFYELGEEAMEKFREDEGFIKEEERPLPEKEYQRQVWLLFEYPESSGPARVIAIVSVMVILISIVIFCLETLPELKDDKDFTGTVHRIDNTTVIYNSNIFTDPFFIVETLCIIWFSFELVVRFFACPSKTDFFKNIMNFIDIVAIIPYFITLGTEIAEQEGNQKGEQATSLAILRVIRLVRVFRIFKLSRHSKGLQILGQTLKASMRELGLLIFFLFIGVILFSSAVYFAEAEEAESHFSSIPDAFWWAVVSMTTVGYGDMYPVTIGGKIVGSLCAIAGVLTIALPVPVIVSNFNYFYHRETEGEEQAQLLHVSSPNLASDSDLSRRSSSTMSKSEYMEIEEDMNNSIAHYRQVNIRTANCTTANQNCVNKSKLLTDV
T1 sequence (P17658 whole entry): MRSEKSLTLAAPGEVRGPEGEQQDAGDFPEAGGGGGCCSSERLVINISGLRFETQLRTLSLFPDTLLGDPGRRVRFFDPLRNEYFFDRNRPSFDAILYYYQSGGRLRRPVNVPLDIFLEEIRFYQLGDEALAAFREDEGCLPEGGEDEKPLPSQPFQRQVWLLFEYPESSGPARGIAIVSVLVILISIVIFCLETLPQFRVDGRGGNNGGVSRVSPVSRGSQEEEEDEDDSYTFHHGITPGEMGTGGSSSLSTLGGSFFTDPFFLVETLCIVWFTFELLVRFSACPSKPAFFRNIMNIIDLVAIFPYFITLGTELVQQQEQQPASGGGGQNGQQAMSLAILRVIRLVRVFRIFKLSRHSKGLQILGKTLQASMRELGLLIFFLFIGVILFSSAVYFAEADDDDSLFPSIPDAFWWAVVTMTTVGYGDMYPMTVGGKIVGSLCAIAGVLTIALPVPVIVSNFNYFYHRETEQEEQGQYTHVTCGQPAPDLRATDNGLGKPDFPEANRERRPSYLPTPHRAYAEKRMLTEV
T3 sequence (P22001 whole entry): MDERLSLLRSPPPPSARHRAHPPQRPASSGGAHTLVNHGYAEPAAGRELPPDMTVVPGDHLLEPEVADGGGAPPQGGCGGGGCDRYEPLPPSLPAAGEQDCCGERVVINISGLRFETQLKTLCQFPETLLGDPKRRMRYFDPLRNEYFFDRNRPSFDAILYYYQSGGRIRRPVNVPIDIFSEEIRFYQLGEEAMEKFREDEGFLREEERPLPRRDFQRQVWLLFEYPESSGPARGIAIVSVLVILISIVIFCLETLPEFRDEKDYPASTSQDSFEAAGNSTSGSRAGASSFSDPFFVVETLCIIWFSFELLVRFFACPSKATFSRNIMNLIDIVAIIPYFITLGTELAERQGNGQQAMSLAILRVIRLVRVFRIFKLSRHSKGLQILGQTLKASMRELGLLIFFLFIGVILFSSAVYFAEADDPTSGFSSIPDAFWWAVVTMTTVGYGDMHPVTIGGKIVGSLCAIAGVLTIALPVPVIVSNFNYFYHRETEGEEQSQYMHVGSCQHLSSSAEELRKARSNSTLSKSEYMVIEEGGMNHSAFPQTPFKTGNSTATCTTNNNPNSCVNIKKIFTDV
T2 sequence (P22001 whole entry): as above

SMILES	AUC(0-inf) (in vivo) [µM·h]	Cmax (in vivo) [nM]	half-life (in vivo) [min]	IC50 (Kv1.6) [nM]	Selectivity Kv1.6/Kv1.3 (Kv1.6)	IC50 (Kv1.3) [nM]	IC50 [1] [nM]	IC50 (Kv1.1) [nM]	Selectivity Kv1.1/Kv1.3 (Kv1.1)	IC50 (Kv1.2) [nM]	IC50 (Rat whole blood) [nM]
CC[C@H](C)[C@@H]1NC(=O)[C@H](C)NC(=O)[C@H](CCCCN)NC(=O)[C@H](CC(C)C)NC(=O)[C@@H]2CSSC[C@@H](C(=O)N[C@@H](Cc3ccc(O)cc3)C(=O)N3CCC[C@H]3C(=O)N[C@@H](CCCNC(=N)N)C(=O)O)NC(=O)[C@H](CCCCN)NC(=O)[C@@H]3CSSC[C@H](NC(=O)[C@H](CCC(=O)O)NC(=O)[C@H](C(C)C)NC(=O)[C@H](CO)NC(=O)[C@H](C)NC(=O)[C@H](CO)NC(=O)[C@@H](NC(=O)[C@H](CCCNC(=N)N)NC(=O)[C@H](CCSC)NC(=O)[C@H](CC(=O)O)NC(=O)[C@@H](N)CCSC)CSSC[C@H](NC(=O)[C@H](CCCCN)NC(=O)CNC(=O)[C@H](Cc4ccccc4)NC(=O)[C@H]([C@@H](C)CC)NC(=O)[C@H](CO)NC(=O)CNC1=O)C(=O)N[C@@H](CCSC)C(=O)N[C@@H](CC(N)=O)C(=O)N[C@@H](CCCCN)C(=O)N[C@@H](CCCCN)C(=O)N3)C(=O)N[C@@H](CCCCN)C(=O)N[C@@H](CCC(N)=O)C(=O)N[C@@H](CCCCN)C(=O)N2 [Compound 5] (H-MDMRCSASVECKQKCLKAIGSIFGKCMNKKCKCYPR-OH; disulfide 5-26, 11-31, 15-33)	0.0724	48.4	55.8	> 3000	>7900	0.38	0.25	> 3000	>7900	285	–
CC[C@H](C)[C@@H]1NC(=O)[C@H](C)NC(=O)[C@H](CCCCN)NC(=O)[C@H](CC(C)C)NC(=O)[C@@H]2CSSC[C@@H](C(=O)N[C@@H](Cc3ccc(O)cc3)C(=O)N3CCC[C@H]3C(=O)N[C@@H](CCCNC(=N)N)C(=O)O)NC(=O)[C@H](CCCCN)NC(=O)[C@@H]3CSSC[C@H](NC(=O)[C@H](CCC(=O)O)NC(=O)[C@H](C(C)C)NC(=O)[C@H](CO)NC(=O)[C@H](C)NC(=O)[C@H](CO)NC(=O)[C@@H](NC(=O)[C@H](CCCNC(=N)N)NC(=O)[C@H](CCSC)NC(=O)[C@H](CC(=O)O)NC(=O)[C@@H](NC(=O)[C@@H](N)CC(N)=O)[C@@H](C)CC)CSSC[C@H](NC(=O)[C@H](CCCCN)NC(=O)CNC(=O)[C@H](Cc4ccccc4)NC(=O)[C@H]([C@@H](C)CC)NC(=O)[C@H](CO)NC(=O)CNC1=O)C(=O)N[C@@H](CCSC)C(=O)N[C@@H](CC(N)=O)C(=O)N[C@@H](CCCCN)C(=O)N[C@@H](CCCCN)C(=O)N3)C(=O)N[C@@H](CCCCN)C(=O)N[C@@H](CCC(N)=O)C(=O)N[C@@H](CCCCN)C(=O)N2 [Compound 8] (H-NIDMRCSASVECKQKCLKAIGSIFGKCMNKKCKCYPR-OH; disulfide 6-27, 12-32, 16-34)	0.0983	76.9	37.2	> 3000	>6800	0.44	0.47	> 3000	>6800	376	–
CCCC[C@H](NC(=O)[C@@H]1CCCN1)C(=O)N[C@@H](CCC(=O)O)C(=O)N[C@@H](CCCC)C(=O)N[C@@H](CCCNC(=N)N)C(=O)N[C@H]1CSSC[C@@H]2NC(=O)[C@H](CCCCN)NC(=O)CNC(=O)[C@H](Cc3ccccc3)NC(=O)[C@H]([C@@H](C)CC)NC(=O)[C@H](CO)NC(=O)CNC(=O)[C@H]([C@@H](C)CC)NC(=O)[C@H](C)NC(=O)[C@H](C)NC(=O)[C@H](CC(C)C)NC(=O)[C@@H]3CSSC[C@@H](C(=O)N[C@@H](Cc4ccc(O)cc4)C(=O)N4CCC[C@H]4C(=O)N[C@@H](CCCNC(=N)N)C(N)=O)NC(=O)[C@H](CCCCN)NC(=O)[C@H](CSSC[C@H](NC(=O)[C@H](CCC(=O)O)NC(=O)[C@H](C(C)C)NC(=O)[C@H](CO)NC(=O)[C@H](C)NC(=O)[C@H](CO)NC1=O)C(=O)N[C@@H](CCCCN)C(=O)N[C@@H](CCC(N)=O)C(=O)N[C@@H](CCCCN)C(=O)N3)NC(=O)[C@H](CCCCN)NC(=O)[C@H](CCCCN)NC(=O)[C@H](CC(N)=O)NC(=O)[C@H](CCCC)NC2=O [Compound 98] (H-P[Nle]E[Nle]RCSASVECKQKCLAAIGSIFGKC[Nle]NKKCKCYPR-NH2; disulfide 6-27, 12-32, 16-34)	–	–	–	> 3000	>16200	0.18	0.11	> 3000	>16200	311	≤ 1
CCCC[C@@H]1NC(=O)[C@@H]2CSSC[C@H](NC(C)=O)C(=O)N[C@@H](CO)C(=O)N[C@@H](C)C(=O)N[C@@H](CO)C(=O)N[C@@H](C(C)C)C(=O)N[C@@H](CCC(=O)O)C(=O)N[C@H]3CSSC[C@H](NC(=O)[C@H](CCCCN)NC(=O)[C@H](CCCCN)NC(=O)[C@H](CC(N)=O)NC1=O)C(=O)N[C@@H](CCCCN)C(=O)N[C@H](C(=O)N[C@@H](Cc1ccc(O)cc1)C(=O)N1CCC[C@H]1C(=O)N[C@@H](CCCNC(=N)N)C(N)=O)CSSC[C@H](NC(=O)[C@H](CCCCN)NC(=O)[C@H](CCC(N)=O)NC(=O)[C@H](CCCCN)NC3=O)C(=O)N[C@@H](CC(C)C)C(=O)N[C@@H](CCCCN)C(=O)N[C@@H](C)C(=O)N[C@@H]([C@@H](C)CC)C(=O)NCC(=O)N[C@@H](CO)C(=O)N[C@@H]([C@@H](C)CC)C(=O)N[C@@H](Cc1ccccc1)C(=O)NCC(=O)N[C@@H](CCCCN)C(=O)N2 [Compound 105] (Ac-CSASVECKQKCLKAIGSIFGKC[Nle]NKKCKCYPR-NH2; disulfide 1-22, 7-27, 11-29)	–	–	–	> 3000	>12400	0.24	0.16	> 3000	>12400	384	≤ 1
CCCC[C@@H]1NC(=O)[C@@H]2CSSC[C@H](NC(=O)[C@@H](N)CCCNC(=N)N)C(=O)N[C@@H](CO)C(=O)N[C@@H](C)C(=O)N[C@@H](CO)C(=O)N[C@@H](C(C)C)C(=O)N[C@@H](CCC(=O)O)C(=O)N[C@H]3CSSC[C@H](NC(=O)[C@H](CCCCN)NC(=O)[C@H](CCCCN)NC(=O)[C@H](CC(N)=O)NC1=O)C(=O)N[C@@H](CCCCN)C(=O)N[C@H](C(=O)N[C@@H](Cc1ccc(O)cc1)C(=O)N1CCC[C@H]1C(=O)N[C@@H](CCCNC(=N)N)C(N)=O)CSSC[C@H](NC(=O)[C@H](CCCCN)NC(=O)[C@H](CCC(N)=O)NC(=O)[C@H](CCCCN)NC3=O)C(=O)N[C@@H](CC(C)C)C(=O)N[C@@H](CCCCN)C(=O)N[C@@H](C)C(=O)N[C@@H]([C@@H](C)CC)C(=O)NCC(=O)N[C@@H](CO)C(=O)N[C@@H]([C@@H](C)CC)C(=O)N[C@@H](Cc1ccccc1)C(=O)NCC(=O)N[C@@H](CCCCN)C(=O)N2 [Compound 106] (H-RCSASVECKQKCLKAIGSIFGKC[Nle]NKKCKCYPR-NH2; disulfide 2-23, 8-28, 12-30)	–	–	–	1300	–	0.4	0.092	> 3000	>7600	280	≤ 1
CCCC[C@@H]1NC(=O)[C@@H]2CSSC[C@H](NC(=O)[C@H](CCCCN)NC(=O)[C@H](CO)NC(C)=O)C(=O)N[C@@H](CO)C(=O)N[C@@H](C)C(=O)N[C@@H](CO)C(=O)N[C@@H](C(C)C)C(=O)N[C@@H](CCC(=O)O)C(=O)N[C@H]3CSSC[C@H](NC(=O)[C@H](CCCCN)NC(=O)[C@H](CCCCN)NC(=O)[C@H](CC(N)=O)NC1=O)C(=O)N[C@@H](CCCCN)C(=O)N[C@H](C(=O)N[C@@H](Cc1ccc(O)cc1)C(=O)N1CCC[C@H]1C(=O)N[C@@H](CCCNC(=N)N)C(N)=O)CSSC[C@H](NC(=O)[C@H](CCCCN)NC(=O)[C@H](CCC(N)=O)NC(=O)[C@H](CCCCN)NC3=O)C(=O)N[C@@H](CC(C)C)C(=O)N[C@@H](CCCCN)C(=O)N[C@@H](C)C(=O)N[C@@H]([C@@H](C)CC)C(=O)NCC(=O)N[C@@H](CO)C(=O)N[C@@H]([C@@H](C)CC)C(=O)N[C@@H](Cc1ccccc1)C(=O)NCC(=O)N[C@@H](CCCCN)C(=O)N2 [Compound 107] (Ac-SKCSASVECKQKCLKAIGSIFGKC[Nle]NKKCKCYPR-NH2; disulfide 3-24, 9-29, 13-31)	–	–	–	1450	–	1	0.084	> 3000	>3000	196	≤ 1
CCCC[C@@H]1NC(=O)[C@@H]2CSSC[C@H](NC(=O)[C@H](CCCNC(=N)N)NC(=O)[C@H](CC(C)C)NC(C)=O)C(=O)N[C@@H](CO)C(=O)N[C@@H](C)C(=O)N[C@@H](CO)C(=O)N[C@@H](C(C)C)C(=O)N[C@@H](CCC(=O)O)C(=O)N[C@H]3CSSC[C@H](NC(=O)[C@H](CCCCN)NC(=O)[C@H](CCCCN)NC(=O)[C@H](CC(N)=O)NC1=O)C(=O)N[C@@H](CCCCN)C(=O)N[C@H](C(=O)N[C@@H](Cc1ccc(O)cc1)C(=O)N1CCC[C@H]1C(=O)N[C@@H](CCCNC(=N)N)C(N)=O)CSSC[C@H](NC(=O)[C@H](CCCCN)NC(=O)[C@H](CCC(N)=O)NC(=O)[C@H](CCCCN)NC3=O)C(=O)N[C@@H](CC(C)C)C(=O)N[C@@H](CCCCN)C(=O)N[C@@H](C)C(=O)N[C@@H]([C@@H](C)CC)C(=O)NCC(=O)N[C@@H](CO)C(=O)N[C@@H]([C@@H](C)CC)C(=O)N[C@@H](Cc1ccccc1)C(=O)NCC(=O)N[C@@H](CCCCN)C(=O)N2 [Compound 108] (Ac-LRCSASVECKQKCLKAIGSIFGKC[Nle]NKKCKCYPR-NH2; disulfide 3-24, 9-29, 13-31)	–	–	–	2460	–	0.35	0.1	> 3000	>8700	122	≤ 1
